This is an account of results in US20230140216A1, “COMBINATION THERAPY FOR TREATING MPS1” (GAIN THERAPEUTICS SA, priority 2020, published 2023).

For test [1], the target named is T1, Recombinant human α-L-iduronidase protein (Homo sapiens, UniProt P35475).
T1 construct: purchased R&D
T1 sequence (P35475 28-653): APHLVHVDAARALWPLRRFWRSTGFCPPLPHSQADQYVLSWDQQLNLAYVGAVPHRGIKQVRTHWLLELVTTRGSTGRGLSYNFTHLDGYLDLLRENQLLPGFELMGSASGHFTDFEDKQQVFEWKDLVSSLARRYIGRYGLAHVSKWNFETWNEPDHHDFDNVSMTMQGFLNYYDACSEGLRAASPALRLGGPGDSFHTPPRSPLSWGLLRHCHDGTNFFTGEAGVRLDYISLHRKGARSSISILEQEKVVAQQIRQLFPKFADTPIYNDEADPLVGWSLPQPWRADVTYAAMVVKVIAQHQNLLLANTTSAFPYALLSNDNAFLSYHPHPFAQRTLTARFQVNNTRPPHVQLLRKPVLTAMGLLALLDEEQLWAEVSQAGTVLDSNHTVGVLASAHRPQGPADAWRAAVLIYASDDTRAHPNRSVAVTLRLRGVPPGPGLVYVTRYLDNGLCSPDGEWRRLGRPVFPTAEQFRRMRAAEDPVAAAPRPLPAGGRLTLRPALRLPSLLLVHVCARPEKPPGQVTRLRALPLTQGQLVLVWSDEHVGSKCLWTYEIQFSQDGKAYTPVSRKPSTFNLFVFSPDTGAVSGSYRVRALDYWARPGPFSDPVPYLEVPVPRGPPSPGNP
In words: Differential scanning fluorimetry (DSF) thermal stabilization. Format: binding. In a few lines:
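Purified recombinant human α-L-iduronidase (final 0.75 µM) in 100 mM Hepes, 20 mM MgCl2, pH 7 with SYPRO Orange was heated with compounds (final 1% DMSO). Thermal denaturation was followed by probe fluorescence during a temperature ramp, and stabilization expressed as ΔTm, binned into four categories (A–D).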
A general note: DSF heats the sample and reads unfolding from a dye or from intrinsic fluorescence.

Test [2] has as its target T2, Recombinant human α-L-iduronidase protein (Homo sapiens, UniProt P35475).
T2 construct: Ala26-Pro653 with a C-terminal 10_His tag; 10xHis (C); host or cells: HEK293f (stated in b1366 for the UAB protein)
T2 sequence (P35475 26-653): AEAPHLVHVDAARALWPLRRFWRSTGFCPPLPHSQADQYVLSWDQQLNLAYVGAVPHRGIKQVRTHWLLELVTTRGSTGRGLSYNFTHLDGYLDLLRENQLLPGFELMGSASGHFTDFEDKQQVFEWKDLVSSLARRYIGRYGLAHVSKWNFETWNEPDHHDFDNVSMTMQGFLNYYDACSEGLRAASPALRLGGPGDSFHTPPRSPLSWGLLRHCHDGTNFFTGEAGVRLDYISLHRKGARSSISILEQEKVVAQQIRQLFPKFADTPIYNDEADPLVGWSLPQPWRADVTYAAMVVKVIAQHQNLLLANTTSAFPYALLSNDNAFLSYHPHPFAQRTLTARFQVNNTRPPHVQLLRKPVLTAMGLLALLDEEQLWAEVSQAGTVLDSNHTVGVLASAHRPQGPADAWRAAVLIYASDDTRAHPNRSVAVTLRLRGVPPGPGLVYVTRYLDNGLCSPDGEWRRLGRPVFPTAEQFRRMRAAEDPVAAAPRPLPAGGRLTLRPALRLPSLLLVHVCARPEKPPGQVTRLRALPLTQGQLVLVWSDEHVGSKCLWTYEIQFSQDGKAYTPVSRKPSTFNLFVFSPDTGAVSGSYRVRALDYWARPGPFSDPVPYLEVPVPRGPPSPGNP
In words: Denaturation prevention assay in neutral pH buffer. Format: biochemical. Particulars: 30 µM compound, pH 7, 37° C. Here is the method:
The capacity of Compounds of the Disclosure to stabilize α-L-iduronidase in neutral pH buffer was assessed using the denaturation prevention assay.
Briefly, recombinant human α-L-iduronidase protein (obtained in the Institute of Biotechnology and Biomedicine in the UAB, Bellaterra, Spain) was combined at a final concentration of 1 µM with 5X of SYPRO Orange and 30 µM of the corresponding compound in a final reaction volume of 25 µL in 100 mM Hepes 20 mM MgCl2 pH 7 buffer. Reactions were incubated at 37° C. and SYPRO Orange fluorescence intensity was monitored at the indicated time points using Glomax® Discover Microplate Reader from Promega (Madison, WI, USA).
The compound referred to as Compound A throughout this specification is the compound of Example 8 described above. […] (T=37° C.).

One may read the Kd as a measure of binding affinity in units of concentration. Take `CCN(CC(=O)Nc1c(Cl)cccc1Cl)Cc1nc2ccsc2c(=O)[nH]1` [Compound A]: the “stabilization of recombinant human IDUA (thermal shift)” value in test [1] (DSF dose response, maximum shift) is “up to 4 °C”. Further, the dissociation constant (Kd) in test [1] (thermal shift dose response curve) was determined as 22 µM. Moreover, the “prevention of pH-induced IDUA denaturation” value in test [2] is given as “slows down pH-induced denaturation”.
